Experimental data as given in patent US20220372014A1, “NEUROPROTECTIVE COMPOUNDS AND METHODS OF USE THEREOF” (The Johns Hopkins University, priority 2019, published 2022).
“Also recorded” adds a separate entry of the source.

Legend:
primary cortical neurons = assay: α-syn PFF-induced cell death in mouse primary cortical neurons (Hoechst and PI staining); format: cell-based; settings: for α-syn PFF-induced cell death in mouse cortical neurons: pre-treated before α-syn PFF, Hoechst/PI; for toxicity when applied to primary cortical neurons: FIG. 12G
Procedure: Cell culture, transfection, primary neuronal culture and treatment. SH-SY5Y cells (ATCC) were cultured in DMEM containing 10% fetal bovine serum and penicillin/streptomycin at 37° C. under 5% C02. The cells were transfected using PolyFect reagent (Qiagen). Parthanatos was induced by the treatment of 50 μM MNNG for 15 min in SH-SY5Y cells. ABT-888 or PAAN/MIF inhibitors were pretreated with indicated concentration 1 h before MNNG treatment and cell death were assessed after 24 h. Primary cortical neurons from WT, PAAN/MIF KO, E22Q KI or P1G KI embryos were prepared as previously described See Kam et al. (2018) Science 362:eaat8407. Briefly, the cortex was dissected and cultured at embryonic day 16 in neurobasal media supplemented with B-27, 0.5 mM L-glutamine, penicillin and streptomycin (Invitrogen). Primary neurons were infected with AAV2-control, AAV2-PAAN/MIF WT, AAV2-PAAN/MIF E22Q, AAV2-PAAN/MIF E22A or AAV2-MIF P1G (ViGene Biosciences) at days in vitro (DIV) 4-5. ABT-888 or PAAN/MIF inhibitors were applied to neurons 1 h before α-syn PFF treatment. The neuron growth medium was replaced with fresh medium alone or including inhibitors every 3-4 days. α-syn PFF was added at DIV 7 and further incubated for indicated times followed by the cell death assay or biochemical experiments.
Cell death and viability assessment. Primary cultured cortical neurons were treated with 5 μg/ml of α-syn PFF for 14 days and cell death was determined by staining of all nuclei with 7 μM Hoechst 33342 and dead cell nuclei with 2 μM propidium iodide (PI) (Invitrogen). The numbers of total and dead cells were counted with the Axiovision 4.6 software (Carl Zeiss). Cell viability was determined by fluorescence at an excitation wavelength 570 nm and an emission wavelength 585 nm using Alamar Blue (Invitrogen).

[1] = target: T1, PAAN/MIF tautomerase activity (Homo sapiens, UniProt P14174); assay: Tautomerase activity assay (D-dopachrome methyl ester); format: biochemical; settings: 10 μM compounds
T1 construct: GST (N, cleaved yes); made in house; host or cells: Escherichia coli
T1 sequence (P14174 1-115): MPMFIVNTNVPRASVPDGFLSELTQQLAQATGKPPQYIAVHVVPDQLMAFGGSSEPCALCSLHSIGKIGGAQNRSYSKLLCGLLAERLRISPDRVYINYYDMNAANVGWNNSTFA
Procedure: Tautomerase activity assay. The keto-enol tautomeric conversion of D-dopachrome methyl ester by PAAN/MIF was used as described previously. See Bendraft et al. (1997) Biochemistry 36:15356-62. Briefly, a fresh solution of D-dopachrome methyl ester was prepared by mixing 2 mML-3,4 dihydroxyphenylalanine methyl ester with 4 mM sodium peroxidate for 5 m at room temperature and then placed directly on ice before use. The enzymatic reaction was initiated at 25° C. by adding 20 μl of the dopachrome methyl ester substrate to 200 μl of PAAN/MIF WT (final concentration 5 μM) with or without 10 μM compounds (compounds 41, 56, 76, and 77) in tautomerase assay buffer (50 mM potassium phosphate, 1 mM EDTA, pH 6.0). To enhance substrate stability, excess sodium meta-periodate was removed using […] disposable columns (Waters). The activity was determined by the decrease in absorbance at 475 nm using a spectrophotometer (Molecular Devices).

[2] = target: T2, PAAN/MIF thiol-protein oxidoreductase activity (Homo sapiens, UniProt P14174); assay: Oxidoreductase activity assay (insulin reduction); format: biochemical; settings: 10 μM compounds
T2 construct: GST (N, cleaved yes); made in house; host or cells: Escherichia coli
T2 sequence (P14174 1-115): T1 sequence (P14174 1-115)
Procedure: Oxidoreductase activity assay. The thiol-protein oxidoreductase activity of PAAN/MIF was measured using insulin as the substrate as described previously. See Kudrin et al. (2006) J. Biol. Chem. 281:29641-51. Briefly, the insulin assay is based on the reduction of insulin and subsequent insolubilization of the insulin β-chain. The time-dependent increase in turbidity is then measured spectrophotometrically at 650 nm. The reaction was started by adding 5 μM PAAN/MIF WT in the presence or absence of 10 μM compounds (compounds 41, 56, 76, and 77) dissolved in 20 mM sodium phosphate buffer (pH 7.2), and 200 mM reduced glutathione (GSH) to ice-cold reaction mixture containing 1 mg/ml insulin, 100 mM sodium phosphate buffer (pH 7.2) and 2 mM EDTA. Insulin reduction was measured against the control solution (containing GSH) in the same experiment.

EcoRV = EcoRV (Escherichia coli, UniProt P04390); assay: In vitro nuclease assay of EcoRV (pcDNA3 substrate); format: biochemical
Sequence of EcoRV (P04390 whole entry): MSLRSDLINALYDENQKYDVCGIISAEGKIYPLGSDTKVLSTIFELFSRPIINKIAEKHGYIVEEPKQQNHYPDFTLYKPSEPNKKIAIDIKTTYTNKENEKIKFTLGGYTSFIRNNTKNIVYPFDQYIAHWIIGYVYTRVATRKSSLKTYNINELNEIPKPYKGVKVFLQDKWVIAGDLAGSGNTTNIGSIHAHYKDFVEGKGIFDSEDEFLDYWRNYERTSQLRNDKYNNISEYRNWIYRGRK
Procedure: (§1) Nuclease assay. Purified PAAN/MIF protein (4 μM) was incubated with compounds (10 μM) in the nuclease buffer [10 mM Tris-C1 (pH 7.0) and 10 mM MgCl2] for 20 m on ice. Then samples were added with 1 μM of PAAN/MIF substrate (PS30 or RF) and incubated for 1 h at 37° C. The reaction was terminated with loading buffer containing 10 mM EDTA and separated on 15% TBE-urea polyacrylamide (PAGE) gel or 20% TBE PAGE gel. For other nucleases (EcoRI and EcoRV) assays, pcDNA3 (500 ng/reaction) was used as a substrate and 0.01 unit of Exonulcase III were incubated with small dsDNA (Sequence ID NO 4:5′-[…]-3′ and Sequence ID NO 5:5′-[…]-3′).

EcoRI = EcoRI (Escherichia coli, UniProt P00642); assay: In vitro nuclease assay of EcoRI (pcDNA3 substrate); format: biochemical
Sequence of EcoRI (P00642 whole entry): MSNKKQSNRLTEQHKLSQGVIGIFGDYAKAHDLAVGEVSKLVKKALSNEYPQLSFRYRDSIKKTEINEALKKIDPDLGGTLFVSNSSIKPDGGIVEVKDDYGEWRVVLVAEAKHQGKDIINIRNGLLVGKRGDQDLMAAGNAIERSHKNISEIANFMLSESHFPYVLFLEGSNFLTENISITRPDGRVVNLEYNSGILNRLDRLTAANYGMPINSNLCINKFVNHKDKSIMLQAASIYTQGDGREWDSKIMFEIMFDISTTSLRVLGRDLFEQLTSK
Procedure: as §1

Compound	α-syn PFF-induced cell death in mouse cortical neurons (primary cortical neurons)	MIF's tautomerase activity [1]	toxicity when applied to primary cortical neurons (primary cortical neurons)	MIF's oxidoreductase activity [2]	nuclease activity of EcoRV (EcoRV)	nuclease activity of EcoRI (EcoRI)
COc1ccc(CC[C@H]2OC(=O)[C@@H]3CCCCN3C(=O)C(=O)C(C)(C)COC(=O)C=CCCN(C)C(=O)[C@@H]3CCCN3C(=O)[C@H](COC(C)(C)C)N(C)C(=O)C(c3ccccc3)NC(=O)[C@H](C)N(C)C(=O)COc3cc(F)cc2c3)cc1OC (mixture of isomers) [compound 121]	protected					
COc1ccc(CC[C@H]2OC(=O)[C@@H]3CCCCN3C(=O)C(=O)C(C)(C)COC(=O)C=CCCN(C)C(=O)[C@@H]3CCCN3C(=O)[C@H](COC(C)(C)C)N(C)C(=O)C(c3ccccc3)NC(=O)CN(C)C(=O)COc3cccc2c3)cc1OC (stereo partly shown) [compound 41]	attenuated	Neither did they inhibit	some toxicity	Neither did they inhibit	do not inhibit	do not inhibit
COc1ccc(CC[C@H]2OC(=O)[C@@H]3CCCCN3C(=O)C(=O)C(C)(C)COC(=O)C=CCCN(C)C(=O)[C@@H]3CCCN3C(=O)[C@H](COC(C)(C)C)N(C)C(=O)C(c3ccccc3)NC(=O)[C@H](C)N(C)C(=O)COc3cccc2c3)cc1OC (stereo partly shown) [compound 56]	attenuated; also recorded: protected	Neither did they inhibit		Neither did they inhibit	do not inhibit	do not inhibit
COc1ccc(CC[C@H]2OC(=O)[C@@H]3CCCCN3C(=O)C(=O)C(C)(C)COC(=O)C=CCCN(C)C(=O)CNC(=O)[C@H](C(C)C)N(C)C(=O)[C@@H](Cc3ccccc3)NC(=O)[C@H](CC(C)C)N(C)C(=O)CCC(=O)Nc3cccc2c3)cc1OC [compound 76]		Neither did they inhibit	some toxicity	Neither did they inhibit	do not inhibit	do not inhibit
COc1ccc(CC[C@H]2OC(=O)[C@@H]3CCCCN3C(=O)C(=O)C(C)(C)COC(=O)C=CCCN(C)C(=O)[C@H](C)NC(=O)[C@H](C(C)C)N(C)C(=O)[C@@H](Cc3ccccc3)NC(=O)[C@H](CC(C)C)N(C)C(=O)CCC(=O)Nc3cccc2c3)cc1OC [compound 77]	attenuated	Neither did they inhibit		Neither did they inhibit	do not inhibit	do not inhibit
